According to patent US8975289B2, “Benzyl aralkyl ether compounds, method for preparing same, intermediate compounds, use of said compounds, method for treatment and/or prevention, pharmaceutical composition and medicament containing same” (priority 2009, dated 2015):

Tested on: three different species of yeast and two distinct species of bacteria
Assay: Growth inhibition of the yeast and bacteria strains of Table 5, summary
Type: cell-based
Description: For the experiments of the present invention (i) yeast strains obtained from clinical isolates and laboratory isolates, and (ii) bacterial strains obtained from laboratory isolates were used, as described in Table 5 as follows.
The yeast strains were grown in culture medium Sabouraud Dextrose Agar maintained at a temperature of 35° C. for 48 hours.
The bacterial strains were grown in culture medium Triptic Soy Agar at 35° C. for two to six hours (or until the turbidity of a McFarland standard solution equal to 0.5). 5.2 Mounting of Preparations and Test For the experiments, compound 1-[2-(2,4-dichlorophenyl)-2-{[4-(trifluoromethyl)benzyl]oxy}ethyl]-1H-imidazole (BL-123) in the form of its nitrate salt, 1-[2-(2,4-dichlorophenyl)]-2-({4-[(2-phenyl)-2H-tetrazole]benzyl}oxy)ethyl]-1H-imidazole (BL-137), and miconazole nitrate were used. The compounds were dissolved in dimethyl sulfoxide (DMSO) to match the final concentration of the compound equal to or less than 1%.
The methodology used to test the sensitivity of the agent was broth microdilution according to the method described in Standard M27-A2 (Reference method for broth dilution tests to determine the sensitivity of yeasts to antifungal therapy-second edition, NCCLS, volume 22 number 15, USA, 2002) as follows.
The yeast strains were grown according to item 5.1.a to obtain a culture containing between 1×10^6 and 5×10^6 CFU/mL. […]

FC(F)(F)c1ccc(COC(Cn2ccnc2)c2ccc(Cl)cc2Cl)cc1 (stereo not shown) [BL-123, 1-[2-(2,4-dichlorophenyl)-2-{[4-(trifluoromethyl)benzyl]oxy}ethyl]-1H-imidazole]
Inhibitory effect on growth (in words): exert an inhibitory effect on the growth
